Data reported in PubChem BioAssay (NCI).
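Where inhibition never reached the appropriate level, the endpoint shown equals the highest concentration tested. Otherwise, values were interpolated linearly from a five-concentration, 48-hour dose response in 96-well plates. The concentration for 50% growth inhibition is given as GI50. TGI: total growth inhibition.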

Legend:
Test in all cases: NCI tumour cell line growth inhibition, 48 h
[1] = tested on: KM12 colon
[2] = tested on: PC-3 prostate
[3] = tested on: NCI-H23 lung
[4] = tested on: RPMI-8226 leukemia
[5] = tested on: A498 renal
[6] = tested on: OVCAR-5 ovarian
[7] = tested on: HOP-62 NSCLC
[8] = tested on: HCT-15 colon
[9] = tested on: T-47D breast
[10] = tested on: COLO 205 colon
[11] = tested on: UACC-257 melanoma
[12] = tested on: UO-31 renal
[13] = tested on: BT-549 breast
[14] = tested on: 786-0 renal
[15] = tested on: SR leukemia
[16] = tested on: SF-268 CNS
[17] = tested on: SK-MEL-28 melanoma
[18] = tested on: SNB-19 CNS
[19] = tested on: SK-MEL-2 melanoma
[20] = tested on: NCI-H226 lung
[21] = tested on: OVCAR-3 ovarian
[22] = tested on: IGROV1 ovarian
[23] = tested on: SF-295 CNS
[24] = tested on: K-562 leukemia
[25] = tested on: OVCAR-8 ovarian
[26] = tested on: SK-MEL-5 melanoma
[27] = tested on: MOLT-4 leukemia
[28] = tested on: U251 CNS
[29] = tested on: ACHN renal
[30] = tested on: NCI/ADR-RES ovarian
[31] = tested on: M14 melanoma
[32] = tested on: SNB-75 CNS
[33] = tested on: MDA-MB-231 breast
[34] = tested on: NCI-H522 lung
[35] = tested on: SK-OV-3 ovarian
[36] = tested on: MALME-3M melanoma
[37] = tested on: HL-60(TB) leukemia
[38] = tested on: CCRF-CEM leukemia
[39] = tested on: SW-620 colon
[40] = tested on: RXF 393 renal
[41] = tested on: UACC-62 melanoma
[42] = tested on: MDA-MB-435
[43] = tested on: HT29 colon
[44] = tested on: SF-539 CNS
[45] = tested on: TK-10 renal
[46] = tested on: A549 NSCLC
[47] = tested on: CAKI-1 renal
[48] = tested on: NCI-H460 lung
[49] = tested on: HS 578T breast
[50] = tested on: HCC-2998 colon
[51] = tested on: SN12C renal
[52] = tested on: DU-145 prostate

SMILES: Cc1cc(C)cc(NC2=C(Cl)C(=O)c3nc(C)ccc3C2=O)c1
- GI50 [1]: 5.6 µM
- TGI [1]: 20.7 µM
- GI50 [2]: 1.73 µM
- TGI [2]: 10.2 µM
- GI50 [3]: 1.7 µM
- TGI [3]: 4.59 µM
- GI50 [4]: 1.63 µM
- TGI [4]: 4.4 µM
- GI50 [5]: 14.3 µM
- TGI [5]: 28.1 µM
- GI50 [6]: 1.78 µM
- TGI [6]: 3.69 µM
- GI50 [7]: 4.66 µM
- TGI [7]: 19.7 µM
- GI50 [8]: 1.09 µM
- TGI [8]: 2.64 µM
- GI50 [9]: 1.55 µM
- TGI [9]: 4.26 µM
- GI50 [10]: 2.23 µM
- TGI [10]: 5.01 µM
- GI50 [11]: 1.64 µM
- TGI [11]: 3.12 µM
- GI50 [12]: 1.43 µM
- TGI [12]: 2.87 µM
- GI50 [13]: 1.41 µM
- TGI [13]: 2.83 µM
- GI50 [14]: 1.7 µM
- TGI [14]: 3.42 µM
- GI50 [15]: 1.22 µM
- TGI [15]: 3.96 µM
- GI50 [16]: 3.74 µM
- TGI [16]: 20.7 µM
- GI50 [17]: 1.99 µM
- TGI [17]: 3.94 µM
- GI50 [18]: 3.41 µM
- TGI [18]: 24.4 µM
- GI50 [19]: 2.88 µM
- TGI [19]: 9.57 µM
- GI50 [20]: 1.8 µM
- TGI [20]: 4.58 µM
- GI50 [21]: 0.405 µM
- TGI [21]: 1.47 µM
- GI50 [22]: 1.81 µM
- TGI [22]: 3.95 µM
- GI50 [23]: 4.58 µM
- TGI [23]: 16.3 µM
- GI50 [24]: 0.712 µM
- TGI [24]: 4.81 µM
- GI50 [25]: 2.14 µM
- TGI [25]: 5.92 µM
- GI50 [26]: 1.65 µM
- TGI [26]: 3.08 µM
- GI50 [27]: 1.6 µM
- TGI [27]: 5.61 µM
- GI50 [28]: 2.35 µM
- TGI [28]: 8.09 µM
- GI50 [29]: 1.78 µM
- TGI [29]: 3.4 µM
- GI50 [30]: 2.06 µM
- TGI [30]: 6.79 µM
- GI50 [31]: 1.63 µM
- TGI [31]: 3.07 µM
- GI50 [32]: 2.15 µM
- TGI [32]: 6.48 µM
- GI50 [33]: 1.68 µM
- TGI [33]: 4.13 µM
- GI50 [34]: 2.05 µM
- TGI [34]: 5.29 µM
- GI50 [35]: 14.3 µM
- TGI [35]: 27.7 µM
- GI50 [36]: 2.3 µM
- TGI [36]: 4.42 µM
- GI50 [37]: 1.55 µM
- TGI [37]: 3.85 µM
- GI50 [38]: 2.09 µM
- TGI [38]: 5.78 µM
- GI50 [39]: 2.07 µM
- TGI [39]: 4.65 µM
- GI50 [40]: 1.41 µM
- TGI [40]: 2.74 µM
- GI50 [41]: 2.63 µM
- TGI [41]: 7.42 µM
- GI50 [42]: 1.96 µM
- TGI [42]: 3.86 µM
- GI50 [43]: 3.66 µM
- TGI [43]: 19.2 µM
- GI50 [44]: 1.76 µM
- TGI [44]: 3.25 µM
- GI50 [45]: 2.21 µM
- TGI [45]: 3.73 µM
- GI50 [46]: 4.37 µM
- TGI [46]: 19.1 µM
- GI50 [47]: 1.59 µM
- TGI [47]: 3.18 µM
- GI50 [48]: 4.2 µM
- TGI [48]: 20.1 µM
- GI50 [49]: 2.24 µM
- TGI [49]: 5.81 µM
- GI50 [50]: 3.18 µM
- TGI [50]: 10.5 µM
- GI50 [51]: 2 µM
- TGI [51]: 5.79 µM
- GI50 [52]: 1.85 µM
- TGI [52]: 3.55 µM
